Earlier results, collected in patent US20220395522A1, “Methods of Use of Glucosamine for Increasing Nitrogen Retention” (TSI Bioproducts (Xuzhou) Co., Ltd., priority 2021, published 2022).

Conditions: cited from earlier work

## N[C@H]1C(O)O[C@H](CO)[C@@H](O)[C@@H]1O (some centres unmarked) [glucosamine]
Human digestive tract
  Ingested glucosamine absorbed: 10-12%
In vivo
  Ingested glucosamine metabolized by members of the intestinal microbiota before it is absorbed: more than 50%
